Results reported in patent US9796728B2, “Cyclic carbonate monomer containing double-sulfur five-membered ring functional group, and preparation method thereof” (BrightGene Bio-Medical Technology Co., Ltd., priority 2014, dated 2017).

System: B16 melanoma
Experiment: Treating melanoma-bearing mice with drug-loaded crosslinked nanoparticles
Type: in vivo, C57BL/6 black mice
Method: C57BL/6 black mice with body weight of about 18˜20 g, aged 4˜6 weeks were used in the experiment. The mice were weighed and equally grouped based on body weight, then 1×10^6 B16 melanoma cells were subcutaneously injected. After one week, when the size of the tumors was 30˜50 mm^3, the drug-loaded nanoparticles and free DOX were injected into the mice through tail veins at Day 0, 2, 4, 6, and 8, where the amount of DOX in drug-carrying nanoparticles was 10, 20, 30 mg/kg, […] From Day 0 to 15, the body weight of the mice in each group was weighed every day. The size of the tumor was precisely measured with Vernier scale, where the method for calculating the volume of tumors was: V=(L×W×H)/2, (where L was the length of the tumor, W was the width of the tumor, H was the thickness of the tumor). The survival of the mice was observed continuously till the 46th day.
FIG. 11 is a curve graph showing that the doxorubicin-loaded polymer PEG5k-b-PCDC2.8k crosslinked nanoparticles inhibit tumor growth on melanoma-bearing mice; FIG. 12 is a curve graph showing the change of body weight of the mice. FIG. 13 is a curve graph showing the survival of the mice.

## COc1cccc2c1C(=O)c1c(O)c3c(c(O)c1C2=O)C[C@@](O)(C(=O)CO)C[C@@H]3O[C@H]1C[C@H](N)[C@H](O)[C@H](C)O1 [free DOX, doxorubicin]
DOX group, in 7 days
  body weight decrease: 23%
DOX group, printed as 30 mg/kg
  day of treatment on which all mice died: 10 days
Free DOX group
  toxic side effects on the mice: severe toxic side effect
